Literature values as cited in patent publication US9433553B2, “Device and method for prevention and treatment of deep venous thrombosis” (Fred Herz Patents LLC, priority 2001, dated 2016).
Where two headings read alike, the source gives them in different places.

Tests used:
thrombin = thrombin (Homo sapiens, UniProt P00734); conditions: synthetic peptides of the thrombin receptor
[1] = test system: patients undergoing elective total hip replacement
[2] = test system: patients undergoing knee arthroplasty
[3] = test system: patients having surgery after hip fracture; conditions: aspirin treated group; placebo 46%
[4] = test system: experimental thrombus in the rabbit jugular vein
[5] = test system: stasis induced thrombosis; conditions: rabbit; 100% without
[6] = test system: patients with spinal cord injury; conditions: Green (1991)
[7] = test system: patients with deep vein thrombosis; conditions: for patients who developed pulmonary embolism: APTT 50-70 seconds, acute deep vein thrombosis
[8] = test system: patients who underwent elective general surgery
[9] = test system: patients undergoing radical prostatectomy
[10] = total hip replacement, no placebo group
[11] = 349 patients undergoing total hip replacement, dose adjusted
[12] = 665 patients, fixed doses, elective total hip replacement
[13] = subcutaneous, adjusted to APTT 1.5-2 times pretreatment, 66 patients
[14] = 4,498 general surgery patients randomized to LMWH or placebo

In the case of “38-45: synthetic peptide corresponding to the thrombin receptor cleavage site (residues 38-45) (LDPRSFLL; UniProt P25116 38-45, looked up, fragment) [Peptide 38-45]”, the “inhibition of the chromogenic substrate activity of thrombin” value (thrombin) is listed as “competitive inhibitors”.
For “38-64: synthetic peptide corresponding to the covalently associated domains (residues 38-64) of the thrombin receptor (LDPRSFLLRNPNDKYEPFWEDEEKNES; UniProt P25116 38-64, looked up, fragment) [Peptide 38-64]”, the “inhibition of the chromogenic substrate activity of thrombin” value (thrombin) is listed as “competitive inhibitors”.
For CC(=O)CC(c1ccccc1)c1c(O)c2ccccc2oc1=O (stereo not shown) [Warfarin], the “incidence of DVT” value ([1]; Bailey et al (1991), hip replacement patients, low dose warfarin) is given as 26.6%, the “incidence of proximal vein thrombosis” value [1, 10] is given as 3% and the “total incidence of DVT” value [1, 10] is given as 31%. The “incidence of thigh vein thrombi” value ([2]; knee arthroplasty / total knee replacement, 48 patients) was 6%, the “overall incidence of DVT” value ([2]; knee arthroplasty / total knee replacement, 48 patients, no placebo group) was 33% and the “patients having calf thrombi” value ([2]; total knee replacement, 48 patients) was 29%.
For CC(=O)Oc1ccccc1C(=O)O [aspirin], the “incidence of DVT” value [3] is given as 42%.
For Ac(D)-Phe-Pro-bro-Arg [DuP 714], the “fibrin accretion on an experimental thrombus” value ([4]; rabbit jugular vein) is given as “effectively inhibited”, the systemic anticoagulation ([4]; rabbit jugular vein model) is given as “little systemic anticoagulation” and the incidence of thrombosis [5] is given as 33%.
For enoxaparin, the proximal vein thrombi ([1]; Turpie (1991), fixed dose, elective total hip replacement, placebo 20%) is given as 4% and the “rate of DVT” value ([1]; Turpie (1991), fixed dose, elective total hip replacement, placebo 42%) is given as 12%.
In the case of heparin, the “protection against postoperative DVT, adjusted versus fixed low dose” value ([1]; 100 patients, hip replacement or fractured neck of femur, p=0.017) is listed as “Significant improvement”, the “incidence of DVT” value [1, 11] is listed as 16% and the incidence of DVT [1, 12] is listed as 23.2%. For the same molecule, the “rate of proximal vein thrombi” value [1, 12] was 6.5%, the “bleeding, adjusted versus fixed dose” value ([1]; Leyvraz et al (1983)) was “No differences” and the “patients who developed DVT” value ([1]; Leyvraz et al (1983), 38 patients, adjusted dose (APTT 31.5-36 seconds)) was 13%. For the same molecule, the “patients who developed DVT” value ([1]; Leyvraz et al (1983), 41 patients, fixed dose of 3500 U every eight hours) was 39%, the “incidence of DVT left by low dose heparin treatment” value ([1]; total hip and total knee replacement patients) was “around 25%” and the patients with bleeding ([6]; adjusted (higher) dose) was 24%. For the same molecule, the thromboembolism ([6]; dose adjusted to APTT 1.5 times control, mean 13,200 U every 12 hours) was 7%, the patients with bleeding ([6]; fixed dose group) was “none” and the thromboembolism ([6]; fixed dose of 5000 U subcutaneously every 12 hours, 29 patients) was 31%. The “effectiveness of low dose heparin” value (intracerebral hemorrhage) was “ineffective”, the “patients with recurrent venous thromboembolism diagnosed objectively” value ([7]; Prandoni et al (1992), similar study, 85 patients) was 14% and the “patients with improved mean Marder score” value ([7]; adjusted dose intravenous, 49 patients) was 61%. The “major bleeding associated with initial therapy” value ([7]; adjusted dose intravenous, continuous infusion) was 5%, the “incidence of new episodes of venous thromboembolism” value ([7]; adjusted dose intravenous, continuous infusion, initial treatment of proximal vein thrombosis) was 6.9% and the “patients who developed pulmonary embolism” value ([7]; adjusted subcutaneous, 47 patients) was 10.6%. For the same molecule, the “patients who developed pulmonary embolism” value ([7]; continuous intravenous, 49 patients) was 10.2%, the “rate of hemorrhagic complications” value ([7]; subcutaneous and intravenous groups, no difference) was 9.8% and the patients with improvement [7, 13] was 48%. For the same molecule, the “patients with increase in thrombus size” value [7, 13] was 18%, the “reduction of postoperative death from pulmonary emboli” value ([8]; low dose heparin) was 65% and the subclinical thrombi prevented ([8]; low dose heparin, thrombi found by leg scanning after elective general surgery) was “approximately 65%”. For the same molecule, the bleeding complications ([9]; mini-dose heparin treated group) was “unacceptably high” and the “incidence of pulmonary emboli” value ([9]; mini-dose heparin, 11% without) was “none”.
For low molecular weight heparin [LMWH], the “incidence of DVT” value [1, 11] is listed as 12.6%, the “incidence of DVT” value [1, 12] is listed as 19.4% and the “rate of proximal vein thrombi” value [1, 12] is listed as 5.4%. For the same molecule, the “reduction of incidence of DVT” value ([1]; elective total hip replacement, 56.6% to 15.5%) was 74%, the “incidence of DVT” value ([1]; elective total hip replacement, without LMWH 56.6%) was 15.5% and the “reduction of incidence of proximal vein thrombi” value ([2]; knee arthroplasty or tibial osteotomy) was 100%. For the same molecule, the “reduction of incidence of DVT” value ([2]; knee arthroplasty or tibial osteotomy, every 12 hours) was 71%, the “incidence of DVT” value ([2]; knee arthroplasty or tibial osteotomy, every 12 hours, placebo 65%) was 19% and the “incidence of proximal vein thrombi” value ([2]; knee arthroplasty or tibial osteotomy, placebo 19%) was “none”. For the same molecule, the “major bleeding compared to placebo” value ([8]; 4,498 general surgery patients) was “No difference”, the “postoperative wound hematomas and transfusion requirements compared to placebo” value ([8]; 4,498 general surgery patients) was “increase in postoperative wound hematomas and transfusion requirements” and the overall mortality [8, 14] was 0.36%. For the same molecule, the thromboembolic mortality [8, 14] was 0.09%, the “incidence of DVT” value ([8]; Ockelford et al (1989), 183 patients, LMWH or placebo) was 4.2% and the “efficacy compared with standard heparin” value ([8]; seven studies in general surgery patients) was “same efficacy”.
